Test results: patent US8299302B2 (priority 2007, dated 2012)
Where two headings read alike, the source gives them in different places. One block for each compound: values may come before it.

Tests used:
Uromyces appendiculatus = assay: Uromyces test (bean) / protective; assay type: in vivo; conditions: 240 h, read-out: efficacy
Procedure: (§1) To produce a suitable preparation of active compound, 1 part by weight of active compound is mixed with the stated amounts of solvent and emulsifier, and the concentrate is diluted with water to the desired concentration.
To test for protective activity, young plants are sprayed with the active compound preparation at the stated application rate. After the spray coating has dried on, the plants are inoculated with an aqueous spore suspension of the bean rust pathogen Uromyces appendiculatus and then remain in an incubation cabin at about 20° C. and 100% relative atmospheric humidity for 1 day.
The plants are then placed in a greenhouse at about 21° C. and a relative atmospheric humidity of about 90%.
(§2) Evaluation is carried out 10 days after the inoculation. 0% means an efficacy which corresponds to that of the control, whereas an efficacy of 100% means that no infection is observed.

Botrytis cinerea = assay: Botrytis test (bean) / protective; assay type: in vivo; conditions: 48 h, read-out: efficacy
Procedure: as §1
To test for protective activity, young plants are sprayed with the active compound preparation at the stated application rate. After the spray coating has dried on, 2 small pieces of agar overgrown with Botrytis cinerea are placed on each leaf. The inoculated plants are then placed in a darkened chamber at about 20° C. and 100% relative atmospheric humidity.
Two days after the inoculation the size of the infected spots on the leaves is evaluated. 0% means an efficacy which corresponds to that of the control, whereas an efficacy of 100% means that no infection is observed.

Podosphaera leucotricha = assay: Podosphaera test (apple) / protective; assay type: in vivo; conditions: 240 h, read-out: efficacy
Procedure: as §1
(§3) To test for protective activity, young plants are sprayed with the active compound preparation at the stated application rate. After the spray coating has dried on, the plants are inoculated with an aqueous spore suspension of the apple mildew pathogen Podosphaera leucotricha. The plants are then placed in a greenhouse at about 23° C. and a relative atmospheric humidity of about 70%.
as §2

Sphaerotheca fuliginea = assay: Sphaerotheca test (cucumber) / protective; assay type: in vivo; conditions: Podosphaera fuliginea, 168 h, read-out: efficacy
Procedure: as §1
as §3, with “dried,” for “dried on,”, “Sphaerotheca fuliginea.” for “the apple mildew pathogen Podosphaera leucotricha.”
Evaluation is carried out 7 days after the inoculation. 0% means an efficacy which corresponds to that of the control, whereas an efficacy of 100% means that no infection is observed.

Puccinia recondita = assay: Puccinia test (wheat) / protective; assay type: in vivo; conditions: 240 h, read-out: efficacy
Procedure: as §1
To test for protective activity, young plants are sprayed with the active compound preparation at the stated application rate. After the spray coating has dried on, the plants are sprayed with a conidia suspension of Puccinia recondita. The plants remain in an incubation cabin at 20° C. and 100% relative atmospheric humidity for 48 hours.
The plants are then placed in a greenhouse at a temperature of about 20° C. and a relative atmospheric humidity of 80% to promote the development of rust pustules.
as §2

[1] = bean plants, protective spray, active compound concentration 10 ppm, evaluation 10 days after inoculation
[2] = bean plants, protective spray, active compound concentration 250 ppm, evaluation two days after inoculation
[3] = apple plants, protective spray, active compound concentration 100 ppm, evaluation 10 days after inoculation
[4] = cucumber plants, protective spray, active compound concentration 100 ppm, evaluation 7 days after inoculation
[5] = wheat plants, protective spray, active compound concentration 1000 ppm, evaluation 10 days after inoculation

Compound: 4-[(4′-fluorobiphenyl-4-yl)oxy]-2,5-dimethyl-N-[(1E)-pyrrolidin-1-ylmethylene]aniline [Compound 30]
logP acidic (logP (acidic, pH 2.3); acidic): 2.62

logP (logP (acidic, pH 2.3); pH 2.3, log P (pH 2.3), pH 2.3): 2.88
Compound: Cc1cc(Oc2ccc(Br)cc2)c(C)cc1N [4-(4-Bromophenoxy)-2,5-dimethylaniline]

logP (logP (acidic, pH 2.3); pH 2.3, log P (pH 2.3), pH 2.3): 4.25
Compound: Cc1cc(Oc2ccc(C3CCCCC3)cc2)c(C)cc1N [4-(4-Cyclohexylphenoxy)-2,5-dimethylaniline]

logP (logP (acidic, pH 2.3); pH 2.3, log P (pH 2.3), pH 2.3): 3.06
Compound: COc1ccc(-c2ccc(Oc3cc(C)c(N)cc3C)cc2)cc1 [4-[4-(4-Methoxyphenyl)phenoxy]-2,5-dimethylaniline]

logP (logP (acidic, pH 2.3); pH 2.3, logP acidic, acidic): 2.95
Compound: CCN(C)C=Nc1cc(C)c(Oc2ccc(-c3ccc(Cl)cc3)cc2)cc1C [Compound 1, N′-{4-[(4′-chlorobiphenyl-4-yl)oxy]-2,5-dimethylphenyl}-N-ethyl-N-methylimidoformamide]
pest or weed control at 10 ppm (Uromyces appendiculatus; [1]): ≥ 70% | pest or weed control at 250 ppm (Botrytis cinerea; [2]): ≥ 70% | pest or weed control at 100 ppm (Podosphaera leucotricha; [3]): ≥ 70% | pest or weed control at 100 ppm (Sphaerotheca fuliginea; [4]): ≥ 70% | pest or weed control at 1000 ppm (Puccinia recondita; [5]): ≥ 70%

logP (logP (acidic, pH 2.3); pH 2.3, logP acidic, acidic): 2.06
Compound: CCN(C)C=Nc1cc(C)c(Oc2ccc(-c3ccc(S(=O)(=O)CC)cc3)cc2)cc1C [Compound 2, N-ethyl-N′-(4-{[4′-(ethylsulfonyl)biphenyl-4-yl]oxy}-2,5-dimethylphenyl)-N-methylimidoformamide]
pest or weed control at 10 ppm (Uromyces appendiculatus; [1]): ≥ 70% | pest or weed control at 100 ppm (Podosphaera leucotricha; [3]): ≥ 70% | pest or weed control at 100 ppm (Sphaerotheca fuliginea; [4]): ≥ 70% | pest or weed control at 1000 ppm (Puccinia recondita; [5]): ≥ 70%

logP (logP (acidic, pH 2.3); pH 2.3, logP acidic, acidic): 2.94
Compound: CCN(C)C=Nc1cc(C)c(Oc2ccc(-c3ccc(C(F)(F)F)cc3)cc2)cc1C [Compound 3, N′-(2,5-dimethyl-4-{[4′-(trifluoromethyl)biphenyl-4-yl]oxy}phenyl)-N-ethyl-N-methylimidoformamide]
pest or weed control at 250 ppm (Botrytis cinerea; [2]): ≥ 70% | pest or weed control at 100 ppm (Podosphaera leucotricha; [3]): ≥ 70% | pest or weed control at 100 ppm (Sphaerotheca fuliginea; [4]): ≥ 70% | pest or weed control at 1000 ppm (Puccinia recondita; [5]): ≥ 70%

logP (logP (acidic, pH 2.3); pH 2.3, logP acidic, acidic): 2.13
Compound: CCN(C)C=Nc1cc(C)c(Oc2ccc(-c3ccc(N(C)C)cc3)cc2)cc1C [Compound 4, N′-(4-{[4′-(dimethylamino)biphenyl-4-yl]oxy}-2,5-dimethylphenyl)-N-ethyl-N-methylimidoformamide]

logP (logP (acidic, pH 2.3); pH 2.3, logP acidic, acidic): 3.41
Compound: CCN(C)C=Nc1cc(C)c(Oc2ccc(-c3ccc(C(C)(C)C)cc3)cc2)cc1C [Compound 7, N′-(2,5-dimethyl-4-{[4′-(tert-butyl)biphenyl-4-yl]oxy}phenyl)-N-ethyl-N-methylimidoformamide]
pest or weed control at 250 ppm (Botrytis cinerea; [2]): ≥ 70% | pest or weed control at 100 ppm (Podosphaera leucotricha; [3]): ≥ 70% | pest or weed control at 100 ppm (Sphaerotheca fuliginea; [4]): ≥ 70%

logP (logP (acidic, pH 2.3); pH 2.3, logP acidic, acidic): 2.32
Compound: CCN(C)C=Nc1cc(C)c(Oc2ccc(-c3ccc(C(C)=O)cc3)cc2)cc1C [Compound 8, N′-{4-[(4′-acetylbiphenyl-4-yl)oxy]-2,5-dimethylphenyl}-N-ethyl-N-methylimidoformamide]
pest or weed control at 10 ppm (Uromyces appendiculatus; [1]): ≥ 70% | pest or weed control at 100 ppm (Podosphaera leucotricha; [3]): ≥ 70% | pest or weed control at 100 ppm (Sphaerotheca fuliginea; [4]): ≥ 70%

Compound: CCCCO/N=C/c1ccc(-c2ccc(Oc3cc(C)c(N=CN(C)CC)cc3C)cc2)cc1 [Compound 10]
logP (logP (acidic, pH 2.3); pH 2.3): 3.51

Compound: CCN(C)C=Nc1cc(C)c(Oc2ccc(-c3ccc(/C=N/OC)cc3)cc2)cc1C [Compound 12]
logP (logP (acidic, pH 2.3); pH 2.3): 2.75

Compound: CCN(C)C=Nc1cc(C)c(Oc2ccc(-c3ccccc3C(F)(F)F)cc2)cc1C [Compound 14]
pest or weed control at 250 ppm (Botrytis cinerea): ≥ 70% | pest or weed control at 100 ppm (Podosphaera leucotricha): ≥ 70% | logP (logP (acidic, pH 2.3); pH 2.3): 2.77 | pest or weed control at 100 ppm (Sphaerotheca fuliginea): ≥ 70% | pest or weed control at 1000 ppm (Puccinia recondita): ≥ 70%

Compound: CCN(C)C=Nc1cc(C)c(Oc2ccc(-c3ccccc3C(C)C)cc2)cc1C [Compound 15]
pest or weed control at 250 ppm (Botrytis cinerea): ≥ 70% | pest or weed control at 100 ppm (Podosphaera leucotricha): ≥ 70% | logP (logP (acidic, pH 2.3); pH 2.3): 3.06 | pest or weed control at 100 ppm (Sphaerotheca fuliginea): ≥ 70% | pest or weed control at 1000 ppm (Puccinia recondita): ≥ 70%

Compound: CCN(C)C=Nc1cc(C)c(Oc2ccc(-c3ccccc3OC)cc2)cc1C [Compound 19]
pest or weed control at 10 ppm (Uromyces appendiculatus): ≥ 70% | pest or weed control at 250 ppm (Botrytis cinerea): ≥ 70% | logP (logP (acidic, pH 2.3); pH 2.3): 2.49 | pest or weed control at 100 ppm (Sphaerotheca fuliginea): ≥ 70% | pest or weed control at 1000 ppm (Puccinia recondita): ≥ 70%

Compound: Cc1cc(Oc2ccc(-c3ccccc3C(F)(F)F)cc2)c(C)cc1/N=C/N1CCCCC1 [Compound 20]
pest or weed control at 250 ppm (Botrytis cinerea): ≥ 70% | pest or weed control at 100 ppm (Podosphaera leucotricha): ≥ 70% | logP (logP (acidic, pH 2.3); pH 2.3): 2.93 | pest or weed control at 100 ppm (Sphaerotheca fuliginea): ≥ 70% | pest or weed control at 1000 ppm (Puccinia recondita): ≥ 70%

Compound: Cc1cc(Oc2ccc(-c3ccccc3F)cc2)c(C)cc1/N=C/N1CCCCC1 [Compound 21]
logP (logP (acidic, pH 2.3); pH 2.3): 2.98 | pest or weed control at 1000 ppm (Puccinia recondita): ≥ 70%

Compound: CC(=O)c1ccccc1-c1ccc(Oc2cc(C)c(/N=C/N3CCCCC3)cc2C)cc1 [Compound 22]
pest or weed control at 250 ppm (Botrytis cinerea): ≥ 70% | pest or weed control at 100 ppm (Podosphaera leucotricha): ≥ 70% | logP (logP (acidic, pH 2.3); pH 2.3): 3.52 | pest or weed control at 100 ppm (Sphaerotheca fuliginea): ≥ 70%

Compound: CCc1ccccc1-c1ccc(Oc2cc(C)c(/N=C/N3CCCCC3)cc2C)cc1 [Compound 23]
pest or weed control at 250 ppm (Botrytis cinerea): ≥ 70% | pest or weed control at 100 ppm (Podosphaera leucotricha): ≥ 70% | logP (logP (acidic, pH 2.3); pH 2.3): 3.34 | pest or weed control at 100 ppm (Sphaerotheca fuliginea): ≥ 70% | pest or weed control at 1000 ppm (Puccinia recondita): ≥ 70%

Compound: Cc1cc(Oc2ccc(-c3ccccc3C)cc2)c(C)cc1/N=C/N1CCCCC1 [Compound 24]
pest or weed control at 250 ppm (Botrytis cinerea): ≥ 70% | pest or weed control at 100 ppm (Podosphaera leucotricha): ≥ 70% | logP (logP (acidic, pH 2.3); pH 2.3): 3.22 | pest or weed control at 100 ppm (Sphaerotheca fuliginea): ≥ 70% | pest or weed control at 1000 ppm (Puccinia recondita): ≥ 70%

Compound: Cc1cc(Oc2ccc(-c3ccccc3C(C)C)cc2)c(C)cc1/N=C/N1CCCCC1 [Compound 25]
pest or weed control at 10 ppm (Uromyces appendiculatus): ≥ 70% | pest or weed control at 250 ppm (Botrytis cinerea): ≥ 70% | pest or weed control at 100 ppm (Podosphaera leucotricha): ≥ 70% | logP (logP (acidic, pH 2.3); pH 2.3): 2.46 | pest or weed control at 100 ppm (Sphaerotheca fuliginea): ≥ 70%

Compound: Cc1cc(Oc2ccc(-c3ccccc3Cl)cc2)c(C)cc1/N=C/N1CCCCC1 [Compound 26]
pest or weed control at 250 ppm (Botrytis cinerea): ≥ 70% | pest or weed control at 100 ppm (Podosphaera leucotricha): ≥ 70% | logP (logP (acidic, pH 2.3); pH 2.3): 2.77 | pest or weed control at 100 ppm (Sphaerotheca fuliginea): ≥ 70% | pest or weed control at 1000 ppm (Puccinia recondita): ≥ 70%

Compound: Cc1cc(Oc2ccc(-c3ccccc3OCC(C)C)cc2)c(C)cc1/N=C/N1CCCCC1 [Compound 28, 4-[(2′-isobutoxybiphenyl-4-yl)oxy]-2,5-dimethyl-N-[(1E)-piperidin-1-ylmethylene]aniline]
logP (logP (acidic, pH 2.3); pH 2.3, logP acidic, acidic): 3.44

Compound: CCN(C)C=Nc1cc(C)c(Oc2ccc(-c3ccccc3OCC(C)C)cc2)cc1C [Compound 29, N-ethyl-N′-{4-[(2′-isobutoxybiphenyl-4-yl)oxy]-2,5-dimethylphenyl}-N-methylimidoformamide]
logP (logP (acidic, pH 2.3); pH 2.3, logP acidic, acidic): 3.14

logP (logP (acidic, pH 2.3); pH 2.3, logP acidic, acidic): 2.64
Compound: CCN(C)C=Nc1cc(C)c(Oc2ccc(-c3ccccc3)cc2)cc1C [Compound 31, N′-[4-(biphenyl-4-yloxy)-2,5-dimethylphenyl]-N-ethyl-N-methylimidoformamide]

logP (logP (acidic, pH 2.3); pH 2.3, logP acidic, acidic): 3.22
Compound: Cc1cc(Oc2ccc(C3CCCC3)cc2)c(C)cc1/N=C/N1CCCCC1C (stereo not shown) [Compound 34, 4-(4-cyclopentylphenoxy)-2,5-dimethyl-N-[(1E)-(2-methylpiperidin-1-yl)methylene]aniline]
pest or weed control at 1000 ppm (Puccinia recondita; [5]): ≥ 70%

logP (logP (acidic, pH 2.3); pH 2.3, logP acidic, acidic): 3.13
Compound: Cc1cc(Oc2ccc(C3CCCC3)cc2)c(C)cc1/N=C/N1CCCCC1 [Compound 35, 4-(4-cyclopentylphenoxy)-2,5-dimethyl-N-[(1E)-piperidin-1-ylmethylene]aniline]
pest or weed control at 10 ppm (Uromyces appendiculatus; [1]): ≥ 70% | pest or weed control at 250 ppm (Botrytis cinerea; [2]): ≥ 70% | pest or weed control at 100 ppm (Sphaerotheca fuliginea; [4]): ≥ 70% | pest or weed control at 1000 ppm (Puccinia recondita; [5]): ≥ 70%

logP (logP (acidic, pH 2.3); pH 2.3, logP acidic, acidic): 3.2
Compound: Cc1cc(Oc2ccc(C3CCCCC3)cc2)c(C)cc1N=CN(C)C(C)C [Compound 39, N′-{4-[4-cyclohexyl-phenoxy]-2,5-dimethylphenyl}-N-isopropyl-N-methylimidoformamide]
